# Results reported in US6297241A, “Carbamate derivatives of diaryl 1,3,4-oxadiazolone” (Bristol-Myers Squibb Company, priority 2000, dated 2001).
# Tests used:
# [1] = system: cloned mammalian (mSlo or hSlo) BK channels; test: Increase of cloned BK-mediated outward current in Xenopus oocytes, two-electrode voltage clamp; assay type: cell-based; conditions: 1 μM; at least 5 oocytes; mSlo or hSlo expressed in Xenopus oocytes
# cortical infarct volume = test: Focal stroke model: permanent left MCA and CCA occlusion, temporary right CCA occlusion; assay type: in vivo; conditions: Wistar rat; 10 μg/kg i.v. single bolus two hours after MCA occlusion; measured 24 hours after MCAO
# Procedure: To determine the ability of the compounds of the present invention to reduce cell loss resulting from neuronal ischemia, a standard focal cerebral ischemia is induced by permanent occlusion of the left middle cerebral artery (MCA) and common carotid artery (CCA) with one hour occlusion of the right CCA in the Wistar rat. The surgeries are performed using the sub-temporal approach of A. Tamura, et al., J. Cereb. Blood Flow Metab., 1, pp. 53-60, (1981) and its modifications [K. Osborne, et al., J. Neurol Neurosurg. Psychiatry, 50, pp. 402-410 (1987) and S. Menzies, et al., Neurosurgery, 31, pp.100-107, (1992).]
# The compound of Example 1 was evaluated in the focal stroke model involving permanent occlusion of the left MCA (MCAO) and CCA (CCAO) and temporary occlusion of the right CCA in the Wistar rat. This procedure results in a reliably large neocortical infarct volume that is measured by means of vital dye exclusion in serial slices through the brain 24 hours after MCAO. In the present test, compounds were administered using an i.v. or i.p. route of administration two hours after occlusion.
# [2] = system: non-BK native currents in the oocytes; test: Effect on non-BK native currents (current remaining with IBTX) in oocytes; conditions: at the tested concentration; IBTX 50 nM
# [3] = Rapid screen of prodrug hydrolysis and drug release in plasma (HPLC); assay type: in vitro ADME; conditions: fresh rat plasma, 37° C., 10 μg/mL, stock in PEG-400, analysis 5 minutes after incubation
# Procedure: A rapid screen to determine the ability of prodrugs to hydrolyze and release the drug (compound of Example 1) is conducted as follows. A 1 mg/mL stock solution of the prodrug is prepared in distilled water or acetonitrile or PEG-400. Plasma from freshly collected rat or human blood is used in this assay. To 1 mL of plasma at 37° C. was added 10 μL of stock solution of prodrug and mixed gently. Immediately after the mixing, 100 μL of plasma was removed and quenched with 300 μL of acetonitrile (Zero time sample). Samples were also obtained at 30 minutes and quenched immediately. The quenched samples were centrifuged to obtain a clear supernatant for analysis. The stock solution, T=0 and T=30 samples were analyzed by a HPLC assay that separates the drug from the prodrug. Based on the relative peak areas of prodrug and drug in these samples, different prodrugs are characterized as fast, moderate and slow release agents. For example, in this model, the compound of Example 2 was dissolved in PEG-400 at a concentration of 1 mg/mL and incubated at 10 μg/mL in fresh rat plasma at 37° C.
Structure (SMILES),BK current as % of control of IBTX-sensitive current [1] [%],Reduction of cortical infarct volume vs vehicle-treated (water) control (cortical infarct volume),Effect on non-BK native currents in the oocytes [2],Conversion of prodrug to the drug (compound of Example 1) in plasma [3]
O=c1oc(-c2ccc(C(F)(F)F)cc2)nn1Cc1cc(Cl)ccc1O [Example 1],126,about 18%,did not effect non-BK native currents,
"O=C(O)CC(NC(=O)Oc1ccc(Cl)cc1Cn1nc(-c2ccc(C(F)(F)F)cc2)oc1=O)C(=O)O (stereo not shown) [Example 2, N-[[4-Chloro-2-[[5-[4-(trifluoromethyl)phenyl]-2. 3-dihydro-2-oxo-1,3,4-oxadiazol-3-yl]methyl]phenoxy]carbonyl]aspartic acid]",,,,conversion of the compound of Example 2 to the compound of Example 1
